Experimental findings from patent publication US4335249A, “Herbicidal diphenyl ethers, sulfides, sulfoxides and sulfones” (Rohm and Haas Company, priority 1976, dated 1982) are described below.

Each structure is given as a SMILES string.

What all share (type): in vivo
The subject of test [1] is morningglory (Ipomoca spp.). In words: Preemergence herbicidal activity, morningglory. Particulars: 2 lb/A; for pest or weed control at 2241.7 g/ha: Ipomoea, pre-emergence, 336 h. In short, it runs like this: (§1)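 Pre: flats treated immediately post-planting. Post: treated 2 wk after germination. Spray = acetone/water solution, 50 gal/acre carrier, rate in lb/A. Read ~2 wk after treatment as average % plants killed.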

The test system of test [2] is barnyardgrass (Echinochloa crusgalli). Nature of the test: Postemergence herbicidal activity, barnyardgrass. Particulars: Post, 2 lb/A; for pest or weed control at 2241.7 g/ha: Echinochloa crus-galli, post-emergence, 336 h. An outline of the steps:
(§2)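 Acetone solution diluted w/ water; spray, carrier 50 gal/acre equivalent; rate in lb/A. Pre: flats sprayed right after sowing. Post: sprayed 2 wk after germination. Weed control scored.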

Test [3] deals with marigold (Tagetes spp.). Nature of the test: Preemergence herbicidal activity, marigold. Conditions: 2 lb/A; for pest or weed control at 2241.7 g/ha: pre-emergence, 336 h. In short, it runs like this: as §1
The test system of test [4] is cocklebur (Xanthium pensylvanicum). Nature of the test: Preemergence herbicidal activity, cocklebur. Conditions: 2 lb/A; for pest or weed control at 2241.7 g/ha: Xanthium strumarium, pre-emergence, 336 h. An outline of the steps: as §1
The test system of test [5] is downybrome (Bromus tectorum). In words: Preemergence herbicidal activity, downybrome. Particulars: Pre, 2 lb/A; for pest or weed control at 2241.7 g/ha: Bromus tectorum, pre-emergence, 336 h. An outline of the steps:
as §1

For test [6], the system named is cocklebur (Xanthium pensylvanicum). In words: Postemergence herbicidal activity, cocklebur. Particulars: 2 lb/A; for pest or weed control at 2241.7 g/ha: Xanthium strumarium, post-emergence, 336 h. An outline of the steps:
as §1

Test [7] relates to foxtail (Setaria spp.). Nature of the test: Preemergence herbicidal activity, foxtail. Particulars: Pre, 2 lb/A; for pest or weed control at 2241.7 g/ha: Setaria, pre-emergence, 336 h. In short, it runs like this: as §1
Test [8] concerns marigold (Tagetes spp.). Nature of the test: Postemergence herbicidal activity, marigold. Conditions: 2 lb/A; for pest or weed control at 2241.7 g/ha: post-emergence, 336 h. In short, it runs like this: as §1
The subject of test [9] is velvetleaf (Abutilon theophrasti). In words: Preemergence herbicidal activity, velvetleaf. Conditions: Pre, 2 lb/A; for pest or weed control at 2241.7 g/ha: Abutilon theophrasti, pre-emergence, 336 h. An outline of the steps:
as §1

For test [10], the system named is barnyardgrass (Echinochloa crusgalli). In words: Preemergence herbicidal activity, barnyardgrass. Particulars: Pre, 2 lb/A; for pest or weed control at 2241.7 g/ha: Echinochloa crus-galli, pre-emergence, 336 h. An outline of the steps:
as §2

Test [11] has as its system foxtail (Setaria spp.). In words: Postemergence herbicidal activity, foxtail. Particulars: Post, 2 lb/A; for pest or weed control at 2241.7 g/ha: Setaria, post-emergence, 336 h. An outline of the steps: as §1
Test [12] has as its system velvetleaf (Abutilon theophrasti). Nature of the test: Postemergence herbicidal activity, velvetleaf. Conditions: 2 lb/A; for pest or weed control at 2241.7 g/ha: Abutilon theophrasti, post-emergence, 336 h. An outline of the steps:
as §2

Test [13] concerns tomato (Lycopersicon esculentum). Nature of the test: Postemergence herbicidal activity, tomato. Conditions: Post, 2 lb/A; for pest or weed control at 2241.7 g/ha: Solanum lycopersicum, post-emergence, 336 h. In short, it runs like this:
as §1

Test [14] concerns wild oats (Avena fatua). In words: Postemergence herbicidal activity, wild oats. Conditions: Post, 2 lb/A; for pest or weed control at 2241.7 g/ha: Avena fatua, post-emergence, 336 h, read-out: % control, Wild oat. In short, it runs like this: as §1
For test [15], the system named is tomato (Lycopersicon esculentum). Nature of the test: Preemergence herbicidal activity, tomato. Conditions: Pre, 2 lb/A; for pest or weed control at 2241.7 g/ha: Solanum lycopersicum, pre-emergence, 336 h. In short, it runs like this: as §1
In test [16] the test system is downybrome (Bromus tectorum). In words: Postemergence herbicidal activity, downybrome. Conditions: Post, 2 lb/A; for pest or weed control at 2241.7 g/ha: Bromus tectorum, post-emergence, 336 h. In short, it runs like this: as §1
In test [17] the test system is morningglory (Ipomoca spp.). In words: Postemergence herbicidal activity, morningglory. Particulars: 2 lb/A; for pest or weed control at 2241.7 g/ha: Ipomoea, post-emergence, 336 h. An outline of the steps: as §1
Test [18] has as its system yellow nutsedge (Cyperus esculentus). Nature of the test: Postemergence herbicidal activity, yellow nutsedge. Conditions: 2 lb/A; for pest or weed control at 2241.7 g/ha: Cyperus, post-emergence, 336 h. In short, it runs like this: as §1
Test [19] deals with wild oats (Avena fatua). Nature of the test: Preemergence herbicidal activity, wild oats. Particulars: Pre, 2 lb/A; for pest or weed control at 2241.7 g/ha: Avena fatua, pre-emergence, 336 h, read-out: % control, Wild oat. An outline of the steps: as §1
Test [20] has as its system yellow nutsedge (Cyperus esculentus). In words: Preemergence herbicidal activity, yellow nutsedge. Particulars: 2 lb/A; for pest or weed control at 2241.7 g/ha: Cyperus, pre-emergence, 336 h. In short, it runs like this: as §1

As to `CC(Oc1ccc(Oc2ccc(C(F)(F)F)cc2)cc1)C(=O)O` (stereo not drawn) [Example 29], the pest or weed control at 2241.7 g/ha in [1] was 0%; in test [2], 100%; in test [3], 0%; in test [4] it was 0%; in [5], 99%; in [6], 0%. The pest or weed control at 2241.7 g/ha in [7] is 100%; in test [8], 30%; in test [9], 0%; in [10] it was 100%; in [11] it was 100%; in [12], 0%. Further, the pest or weed control at 2241.7 g/ha was determined as 30% in test [13]; 100% in test [14]; 0% in test [15]; 80% in test [16]; 0% in [17]; 0% in [18]. In addition, the pest or weed control at 2241.7 g/ha in test [19] was 95%; in [20], 0%.

Consider `CC(Oc1ccc(Oc2ccc(C(F)(F)F)cc2Cl)cc1)C(N)=O` (stereo not drawn) [Example 18], for which the pest or weed control at 2241.7 g/ha turned out to be 0% in test [1]; 99% in [2]; 0% in test [3]; 0% in [4]; 95% in test [5]; 0% in test [6]. Also, the pest or weed control at 2241.7 g/ha in test [7] turned out to be 100%; in [8], 0%; in test [9] it was 0%; in test [10] it was 100%; in test [11], 99%; in [12] it was 0%. In addition, the pest or weed control at 2241.7 g/ha came out at 0% in [13]; 95% in test [14]; 0% in [15]; 40% in test [16]; 0% in test [17]; 0% in test [18]. Besides, the pest or weed control at 2241.7 g/ha in test [19] and in test [20] was 0% in each case.

As for `CCOC(=O)C(C)Oc1ccc(Sc2ccc(C(F)(F)F)cc2C#N)cc1` (stereo not drawn) [Example 47], the pest or weed control at 2241.7 g/ha in test [1] stood at 0%; in [2] it was 100%; in test [3], 0%; in test [4], 0%; in test [5] it was 40%; in test [6], 0%. For the same compound, the pest or weed control at 2241.7 g/ha in [7] was 95%; in [8], 0%; in [9], 0%; in test [10] it was 100%; in test [11], 99%; in [12], 0%. Also, the pest or weed control at 2241.7 g/ha amounted to 0% in test [13]; 99% in test [14]; 0% in test [15]; 99% in test [16]; 0% in test [17]; 0% in [18]. For the same compound, the pest or weed control at 2241.7 g/ha in test [19] was 100%; in [20], 0%.

As for `CCOC(=O)C(C)Oc1ccc(Oc2ccc(C(F)(F)F)cc2)cc1` (stereo not drawn) [Example 27], the pest or weed control at 2241.7 g/ha worked out at 0% in [1]; 100% in test [2]; 0% in test [3]; 0% in test [4]; 99% in test [5]; 70% in test [6]. The pest or weed control at 2241.7 g/ha was determined as 100% in [7]; 100% in test [8]; 0% in [9]; 100% in test [10]; 100% in [11]; 40% in test [12]. Moreover, the pest or weed control at 2241.7 g/ha stood at 60% in test [13]; 100% in [14]; 0% in test [15]; 100% in test [16]; 95% in test [17]; 0% in test [18]. For the same compound, the pest or weed control at 2241.7 g/ha in [19] was found to be 99%; in test [20], 0%.

For `CC(Oc1ccc(Oc2ccc(C(F)(F)F)cc2Cl)cc1)C(=O)O` (stereo not drawn) [Example 14, Sodium 2-[4-(2-chloro-4-trifluoromethylphenoxy)phenoxy] propionate], the “% control, Morningglory” value in [1] (Pre) and in [17] (Post) was 0% each time. Further, the “% control, Barnyardgrass” value in [2] and in [10] was 100% throughout. The “% control, Marigold” value in test [3] (Pre) and in test [8] (Post) was 0% in each case. Besides, the “% control, Cocklebur” value in test [4] (Pre) and in [6] (Post) was 0% throughout. Also, the “% control, Downybrome” value in [5] is recorded as 50%; in test [16] it was 20%. The results for the “% control, Foxtail” value in test [7] and in test [11] were 100% and 95%, respectively. The “% control, Velvetleaf” value in test [9] and in [12] (Post) was 0% throughout. Further, the “% control, Tomato” value in test [13] and in test [15] was 0% each time. In addition, the “% control, Wild oat” value in [14] amounted to 80%; in [19], 40%. Besides, the “% control, Nutsedge” value in test [18] (Post) and in test [20] (Pre) was 0% in each case.

As to `CCCCOC(=O)C(C)Oc1ccc(Oc2ccc(C(F)(F)F)cc2Cl)cc1` (stereo not drawn) [Example 23], the pest or weed control at 2241.7 g/ha in [1] worked out at 0%; in [2], 100%; in test [3], 0%; in test [4], 0%; in test [5], 99%; in test [6], 0%. For the same compound, the pest or weed control at 2241.7 g/ha in test [7] stood at 100%; in [8], 30%; in [9] it was 0%; in test [10], 100%; in test [11], 100%; in test [12], 40%. Further, the pest or weed control at 2241.7 g/ha in test [13] was 99%; in test [14] it was 100%; in test [15], 0%; in test [16] it was 99%; in test [17], 20%; in test [18], 0%. The pest or weed control at 2241.7 g/ha is 80% in [19] and 30% in [20].
